Measurements taken from patent US20100028485A1, “TALAROMYCES EMERSONII ENZYME SYSTEMS” (priority 2006, published 2010).
Where two headings read alike, the source gives them in different places.

Key:
Format in all cases: biochemical, Talaromyces emersonii
EG VI = experiment: Effects of metal ions, chemical modification reagents, detergents and potential inhibitors on EG VI; conditions: for EGVI activity after protection experiment (control = 100.0): 1st incubation (30 min) enzyme + reagent, 2nd incubation (30 min) + NBS; for EV VI activity, Enzyme + reagent (control = 100.0): Preincubation of enzyme with reagent for 30 min (50 C) prior to addition of substrate; for EGVI activity, Substrate + reagent (control = 100.0): Preincubation of substrate with reagent for 30 min (50 C) prior to addition of enzyme; for increase in activity of EG VI: 1 mM metal ion, relative to control without metal ion
Experimental: (§1) Substrate specificity on various polysaccharides and synthetic glycosides was evaluated by 15 measuring activity against a wide variety of carbohydrates (BBG, lichenan, CMC, other polysaccharides and synthetic glycosides) using the normal β-glucanase assay procedure. • Effects Of Metal Ions, Chemical Modification Reagents And Potential Inhibitors A range of monovalent, divalent and heavy metal ions, at final assay concentrations of 1.0 mM, were investigated for their potential effects on the activities of EG V, EG VI and EG VII, by incubating the enzymes with the chemicals and then conducting the normal enzyme assay. Finally, the inhibitor effects of glycosides, such as disaccharides, lactones and flavanoid glycosides on the purified enzymes were examined. Specified concentrations of each glycoside were included in normal assay cocktails and residual activity determined by comparison with controls (no glycoside present).
(§2) Activity was expressed as a % relative to a control (no metal ion present in incubation mixture). In general, heavy metal ions are thought to inactivate enzymes by forming covalent salts with cysteine, histidine or carboxyl groups. […] A selection of reagents known to modify amino acid R-groups in proteins were tested for their effects on EG V, EG VI and EG VII, both in the absence and presence of substrate (substrate-protective effects could be observed in this manner) (see Table 6).

EG VII = experiment: Effects of metal ions, chemical modification reagents, detergents and potential inhibitors on EG VII; conditions: for EG VII activity after protection experiment (control = 100.0): 1st incubation (30 min) enzyme + reagent, 2nd incubation (30 min) + NBS; for EG VII activity, Enzyme + reagent (control = 100.0): Preincubation of enzyme with reagent for 30 min (50 C) prior to addition of substrate; for EG VII activity, Substrate + reagent (control = 100.0): Preincubation of substrate with reagent for 30 min (50 C) prior to addition of enzyme
Experimental: as §1, §2

EG V = experiment: Effects of metal ions, chemical modification reagents, detergents and potential inhibitors on EG V; set-up: decrease in activity of EG V by detergent / loss of activity of EG V by detergent: concentration or dose not given beside the values; conditions: for EG V activity after protection experiment (control = 100.0): 1st incubation (30 min) enzyme + reagent, 2nd incubation (30 min) + NBS; for EG V activity, Enzyme + reagent (control = 100.0): Preincubation of enzyme with reagent for 30 min (50 C) prior to addition of substrate; for EG V activity, Substrate + reagent (control = 100.0): Preincubation of substrate with reagent for 30 min (50 C) prior to addition of enzyme
Experimental: as §1, §2

EG V, EG VI and EG VII = experiment: Effects of metal ions, reagents, phenolics and glycosides stated for all three enzymes; conditions: for effect of phenolic substances on enzyme activity: pre-incubation of enzyme with compound in the absence of substrate
Experimental: as §1, §2

[1] = 1 mM metal ion, relative to control without metal ion
[2] = pre-incubated with enzyme in advance of the addition of substrate

Compound	EV VI activity, Enzyme + reagent (control = 100.0) (EG VI)	EGVI activity, Substrate + reagent (control = 100.0) (EG VI)	EG VII activity, Enzyme + reagent (control = 100.0) (EG VII)	EG VII activity, Substrate + reagent (control = 100.0) (EG VII)	EG V activity, Enzyme + reagent (control = 100.0) (EG V)	EG V activity, Substrate + reagent (control = 100.0) (EG V)	other results
O=C1CCC(=O)N1Br [N-Bromosuccinimide (NBS), N-Bromosuccinimide]	0.0	0.0	0.0	0.0	0.0	0.0	EGVI activity after protection experiment (control = 100.0) (EG VI): 0.0; EG VII activity after protection experiment (control = 100.0) (EG VII): 0.0; EG V activity after protection experiment (control = 100.0) (EG V): 0.0
OCc1ccccc1O[C@@H]1O[C@H](CO)[C@@H](O)[C@H](O)[C@H]1O [salicin]							effect of glycosides/disaccharides on activity of EG V-VII (EG V, EG VI and EG VII): no apparent effect
O=C(O)c1cc[c]([Hg][Cl])cc1 [p-Chloromercuribenzoate]	115.4	107.1	105.4	91.6	125.4	89.7	
O=C(O)c1ccc(O)c(O)c1 [protocatechuic acid]							effect of phenolic substances on enzyme activity (EG V, EG VI and EG VII): markedly activated
CCN1C(=O)C=CC1=O [N-ethylmaleimide]							inhibition by sulphydryl reagents (EG V, EG VI and EG VII; in the presence or absence of substrate): little or no inhibition
C[S+](C)[O-] [Dimethylsuphoxide]	124.3	141.7	194.0	100.0	125.5	93.6	
N[C@@H](CS)C(=O)O [Cysteine]	170.4	370.20	196.5	367.7	163.8	237.8	EGVI activity after protection experiment (control = 100.0) (EG VI): 217.0; EG VII activity after protection experiment (control = 100.0) (EG VII): 167.0; EG V activity after protection experiment (control = 100.0) (EG V): 117.0
OC[C@H]1O[C@@H](Oc2ccc(O)cc2)[C@H](O)[C@@H](O)[C@@H]1O [arbutin]							effect of glycosides/disaccharides on activity of EG V-VII (EG V, EG VI and EG VII): no apparent effect
[Hg+2] [Hg^2+]							effect of metal ion on activity of all three enzymes (EG V, EG VI and EG VII; 1 mM metal ion): Almost total inhibition
[Cl-].c1ccc(-c2nn(-c3ccccc3)[n+](-c3ccccc3)n2)cc1 [2,3,5-Triphenyltetrazolium Chloride]	97.6	97.4	98.5	100.0	97.5	89.1	
O=C(OC[C@H]1O[C@@H](OC(=O)c2cc(O)c(O)c(OC(=O)c3cc(O)c(O)c(O)c3)c2)[C@H](OC(=O)c2cc(O)c(O)c(OC(=O)c3cc(O)c(O)c(O)c3)c2)[C@@H](OC(=O)c2cc(O)c(O)c(OC(=O)c3cc(O)c(O)c(O)c3)c2)[C@@H]1OC(=O)c1cc(O)c(O)c(OC(=O)c2cc(O)c(O)c(O)c2)c1)c1cc(O)c(O)c(OC(=O)c2cc(O)c(O)c(O)c2)c1 [tannic acid]							effect of phenolic substances on enzyme activity (EG V, EG VI and EG VII): potent inhibitor
O=C[C@H](O)[C@@H](O)[C@H](O[C@@H]1O[C@H](CO)[C@@H](O)[C@H](O)[C@H]1O)[C@H](O)CO [cellobiose]							concentrations that markedly inhibited all three enzymes (EG V, EG VI and EG VII): 50 to 75 mM
O=Cc1ccccc1C=O [o-Phthaldialdehyde]	100.0	139.0	155.0	98.8	106.1	94.6	
OC[C@@H](O)[C@@H](O)[C@H](O)[C@@H](O)CO [sorbitol]							effect of glycosides/disaccharides on activity of EG V-VII (EG V, EG VI and EG VII): no apparent effect
CC[n+]1ccc(-c2cccc(S(=O)(=O)[O-])c2)o1 [Woodward's Reagent K]	280.0	266.7	305.9	143.0	162.7	121.1	
OC[C@H]1O[C@@H](O[C@H]2[C@H](O)[C@@H](O)C(O)O[C@@H]2CO)[C@H](O)[C@@H](O)[C@H]1O (stereo partly drawn) [lactose]							concentrations inhibiting EG V (EG V): > 75 mM
[Ba+2] [Ba^2+]							increase in activity of EG VI (EG VI): 37.6%; decrease in activity of EG V (EG V; [1]): 16.5%
O[C@H](CS)[C@@H](O)CS [Dithioerythritol]	657.2	917.90	773.8	360.9	270.6	271.9	
O=C(O)CS [Thioglycolic acid]	187.1	269.0	188.1	150.0	211.1	148.1	
[Na+].[O-][I+3]([O-])([O-])[O-] [Sodium periodate]	357.1	1001.2	300.0	469.7	181.0	283.3	
Tween 20							decrease in activity of EG V by detergent (EG V; [2]): 12.7%
[BH4-].[Na+] [Sodium borohydride]	125.0	104.8	194.0	82.8	96.1	81.5	
[Ca+2] [Ca^2+]							increase in activity of EG VI (EG VI): 10%; enhancement of EG VII activity by SO4^2− salt relative to corresponding Cl^− salt (EG VII; 1 mM): ~2 fold; decrease in activity of EG V (EG V; [1]): 21.5-24.6%
Tween 80							decrease in activity of EG V by detergent (EG V; [2]): 30.8%; loss of activity of EG V by detergent (EG V; simultaneous incubation with substrate): 34.2%
[K+] [K^+]							increase in activity of EG VII (EG VII): 20%
C[C@H](CCC(=O)NCCS(=O)(=O)O)[C@H]1CC[C@H]2[C@@H]3[C@H](O)C[C@@H]4C[C@H](O)CC[C@]4(C)[C@H]3C[C@H](O)[C@]12C [taurocholic acid]							decrease in activity of EG V by detergent (EG V): 47.7%
OC(CS)C(O)CS (racemic) [DL-DTT]	514.3	915.5	575.0	348.6	218.9	264.3	EGVI activity after protection experiment (control = 100.0) (EG VI): 140.0; EG VII activity after protection experiment (control = 100.0) (EG VII): 94.6; EG V activity after protection experiment (control = 100.0) (EG V): 204.3
[Na+] [Na^+]							increase in activity of EG V (EG V; [1]): > 39%
C[C@H](CCC(=O)NCCS(=O)(=O)O)[C@H]1CC[C@H]2[C@@H]3CC[C@@H]4C[C@H](O)CC[C@]4(C)[C@H]3C[C@H](O)[C@]12C [taurodeoxycholic acid]							decrease in activity of EG V by detergent (EG V; [2]): 22.7%
